Tests used:
[1] = tested on: AZD9291-resistant human lung adenocarcinoma PDX model LUN #2005-143; experiment: Efficacy in AZD9291-resistant human lung cancer PDX model LUN #2005-143; assay type: in vivo, immunodeficient mice; conditions: Day 29
From the text: (§1) The human-derived tumor tissue xenograft model (PDX model) is a tumor model established in immunodeficient mice using human tumor tissue, which retains the heterogeneity, molecular diversity and histological characteristics of the primary tumor to the greatest extent. It has a high predictive value for the clinical therapeutic effect of drugs and has been increasingly used in cancer research (Hidalgo-2014) in recent years. […] In all experiments, the commercially available third-generation EGFR inhibitor AZD9291 was used as a reference drug to compare tumor inhibition activities.
LUN #2005-143 is an AZD9291-resistant human lung adenocarcinoma (a type of NSCLC) PDX model. This experiment was performed in total of 4 groups, including a Vehicle group (ADC-3 vehicle), an AZD9291 administration group (5 mg/kg), and ADC-3 administration groups (1 mg/kg and 3 mg/kg). During the entire experiment, ADC-3 was administered four times in total, via tail vein injection on Day 0, Day 4, Day 8, and Day 12, and AZD9291 was administered 29 times in total, once a day by intragastric administration. […] In terms of body weight, all animals in the tested drug groups had good tolerance. […] In this experiment, tumor-bearing mice had good tolerance to the tested drugs.

[2] = tested on: AZD9291-resistant human adenosquamous carcinoma of the lung PDX model LUN #2210-4a; experiment: Efficacy in AZD9291-resistant human lung cancer PDX model LUN #2210-4a; assay type: in vivo, immunodeficient mice; conditions: Day 28
From the text: as §1
(§2) LUN #2210-4a is an AZD9291-resistant human adenosquamous carcinoma of the lung PDX model. […] During the entire experiment, ADC-3 was administered four times in total, via tail vein injection on Day 0, Day 4, Day 8, and Day 12, and AZD9291 was administered 28 times in total, once a day by intragastric administration. […] Tumor-bearing mice had good tolerance to the tested drugs.

[3] = tested on: AZD9291-resistant human adenosquamous carcinoma of the lung PDX model LUN #2210-106; experiment: Efficacy in AZD9291-resistant human lung cancer PDX model LUN #2210-106; assay type: in vivo, immunodeficient mice; conditions: Day 30
From the text: as §1
LUN #2210-106 is an AZD9291-resistant human adenosquamous carcinoma of the lung PDX model. This experiment was performed in total of 4 groups, including a Vehicle group (ADC-3 vehicle), an AZD9291 administration group (5 mg/kg), and ADC-3 administration groups (1 mg/kg and 3 mg/kg). During the entire experiment, ADC-3 was administered four times in total, via tail vein injection on Day 0, Day 4, Day 8, and Day 12, and AZD9291 was administered 30 times in total, once a day by intragastric administration. […] Tumor-bearing mice had good tolerance to the tested drugs.

[4] = tested on: AZD9291-resistant human large cell lung carcinoma PDX model LUN #2355-128; experiment: Efficacy in AZD9291-resistant human lung cancer PDX model LUN #2355-128; assay type: in vivo, immunodeficient mice; conditions: Day 16
Protocol: as §1, with “extent.” for “extent. It has a high predictive value for the clinical therapeutic effect of drugs and has been increasingly used in cancer research (Hidalgo-2014) in recent years.”
This experiment was performed in total of 4 groups, including a Vehicle group (ADC-3 vehicle), an AZD9291 administration group (5 mg/kg), and ADC-3 administration groups (1 mg/kg and 3 mg/kg). During the entire experiment, ADC-3 was administered four times in total, via tail vein injection on Day 0, Day 4, Day 8, and Day 12, and AZD9291 was administered 27 times in total, once a day by intragastric administration. The experiment period was 27 days.

[5] = tested on: AZD9291-resistant human adenosquamous carcinoma of the lung PDX model LUN #2441-118; experiment: Efficacy in AZD9291-resistant human lung cancer PDX model LUN #2441-118; assay type: in vivo, immunodeficient mice; conditions: Day 25
From the text: as §1
as §2, with “#2441-118” for “#2210-4a”, “administration. The experiment period was 28 days.” for “administration.”

[6] = tested on: human lung cancer PDX model LUN #2210-106; experiment: Efficacy of MYK-3, AK103 and their combination in human lung cancer PDX model LUN #2210-106 in Hu-HSC-NPG mice; assay type: in vivo; conditions: Day 20
Protocol: LUN #2210-106 is an AZD9291-resistant human adenosquamous carcinoma of the lung PDX model. This experiment was performed in total of 4 groups, including a Vehicle group (ADC-3 vehicle), an ADC-3 administration group (1 mg/kg), an AK103 administration group (5 mg/kg), and an ADC-3 (1 mg/kg)+AK103 (5 mg/kg) administration group. During the entire experiment, ADC-3 was administered three times in total for the ADC-3 single-drug administration group, via tail vein injection on Day 0, Day 4, and Day 8; and AK103 was administered every three days via tail vein injection for the AK103 single-drug administration group, 8 times in total. For the ADC-3+AK103 administration group, ADC-3 was administered three times, and AK103 was administered ten times in total, and their administration modes were the same as those for the single-drug administration groups. The experiment period was 34 days. […] During the period from Day 20 to Day 34, the mean tumor volume of animals in the ADC-3 (1 mg/kg) administration group gradually resumed growth (from 184 mm^3 to 893 mm^3); the mean tumor volume of animals in the ADC-3 (1 mg/kg)+AK103 (5 mg/kg) administration group grew slowly (from 38 mm^3 to 126 mm^3), and on Day 34, complete tumor regression was still observed in 1 out of 6 animals.

[7] = 5 mg/kg intragastric once a day
[8] = AZD9291 dose 3 mg/kg in Table 4

Compound	Relative tumor proliferation rate T/C (%) [1, 7] [%]	Tumor growth inhibition rate TGI % [1, 7] [%]	Tumor inhibition activity ([1]; 5 mg/kg)	Relative tumor proliferation rate T/C (%) [2, 7] [%]	Tumor growth inhibition rate TGI % [2, 7] [%]	Tumor growth inhibition rate TGI % [2, 8] [%]	Tumor inhibition activity [2, 8]	Relative tumor proliferation rate T/C (%) [3, 7] [%]	Tumor growth inhibition rate TGI % [3, 7] [%]	Tumor inhibition activity ([3]; 5 mg/kg)	Relative tumor proliferation rate T/C (%) [4, 7] [%]	Tumor growth inhibition rate TGI % [4, 7] [%]	Tumor inhibition activity ([4]; 5 mg/kg)	Relative tumor proliferation rate T/C (%) [5, 7] [%]	Tumor growth inhibition rate TGI % [5, 7] [%]	Relative tumor proliferation rate T/C (%) [5, 8] [%]	Tumor inhibition activity [5, 8]	Relative tumor proliferation rate T/C (%) ([6]; 5 mg/kg i.v. every three days)	Tumor growth inhibition rate TGI % ([6]; 5 mg/kg i.v. every three days) [%]	Tumor inhibition activity ([6]; 5 mg/kg)
C=CC(=O)Nc1cc(Nc2nccc(-c3cn(C)c4ccccc34)n2)c(OC)cc1N(C)CCN(C)C [AZD9291, osimertinib, reference compound]	36.90	63.10	++ (T/C (%) >20% and ≤40%)	68.99	31.01	31.01	+ (T/C (%) >40%)	65.31	34.69	+ (T/C (%) >40%)	33.61	66.39	++ (T/C (%) >20% and ≤40%)	29.35	70.65	29.35	++ (T/C (%) >20% and ≤40%)	–	–	–
AK103: anti-PD-1 monoclonal antibody drug and immune checkpoint inhibitor	–	–	–	–	–	–	–	–	–	–	–	–	–	–	–	–	–	93.61	6.39	+ (T/C (%) >40%)

Reference: patent US20250135021A1, “USE OF ANTIBODY-DRUG CONJUGATE, AND COMBINED DRUG AND USE THEREOF” (SHANGHAI MIRACOGEN INC., priority 2021, published 2025)
